Inconclusive results and toxic doses are left out.

This assay concerns L1210 leukemia ip in BDF1 mice, survival T/C. The experiment in a line: NCI In Vivo Anticancer Drug Screen. Data for tumor model L1210 Leukemia (intraperitoneal) in B6D2F1 (BDF1) mice. Particulars: higher = longer survival. In a few lines: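 Transplantable tumor model; survival measured in treated vs vehicle control mice. Value = treated/control.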
The mark [1] stands for this setting: endpoint: mean survival time, dose: 25.0 mg/kg/injection, schedule: Q04DX003 (ip), vehicle: saline.
The mark [2] stands for this setting: endpoint: mean survival time, dose: 50.0 mg/kg/injection, schedule: Q01DX001 (ip), vehicle: saline.
Where [3] appears, read: endpoint: mean survival time, dose: 100.0 mg/kg/injection, schedule: Q01DX001 (ip), vehicle: saline.
The mark [4] stands for this setting: endpoint: mean survival time, dose: 200.0 mg/kg/injection, schedule: Q01DX001 (ip), vehicle: saline.
The mark [5] stands for this setting: endpoint: mean survival time, dose: 400.0 mg/kg/injection, schedule: Q01DX001 (ip), vehicle: saline.

Regarding `C[C@H](CN1CC(=O)NC(=O)C1)N1CC(=O)NC(=O)C1`, the T/C reads like this: under setting [1], 124 % of control; (endpoint: mean survival time, dose: 25.0 mg/kg/injection, schedule: Q04DX003 (ip), vehicle: water) 104 % of control; (endpoint: mean survival time, dose: 50.0 mg/kg/injection, schedule: Q04DX003 (ip), vehicle: saline) 117 % of control; (endpoint: mean survival time, dose: 50.0 mg/kg/injection, schedule: Q04DX003 (ip), vehicle: water) 110 % of control; (endpoint: mean survival time, dose: 100.0 mg/kg/injection, schedule: Q04DX003 (ip), vehicle: saline) 117 % of control; (endpoint: mean survival time, dose: 200.0 mg/kg/injection, schedule: Q04DX003 (ip), vehicle: saline) 158 % of control. The T/C reads like this: (endpoint: mean survival time, dose: 200.0 mg/kg/injection, schedule: Q04DX003 (ip), vehicle: water) 152 % of control; (endpoint: mean survival time, dose: 400.0 mg/kg/injection, schedule: Q04DX003 (ip), vehicle: saline) 182 % of control; (endpoint: mean survival time, dose: 400.0 mg/kg/injection, schedule: Q04DX003 (ip), vehicle: water) 184 % of control; (endpoint: mean survival time, dose: 800.0 mg/kg/injection, schedule: Q04DX003 (ip), vehicle: saline) 187 % of control; (endpoint: mean survival time, dose: 800.0 mg/kg/injection, schedule: Q04DX003 (ip), vehicle: water) 107 % of control; (endpoint: median survival time, dose: 8.0 mg/kg/injection, schedule: Q03HX008 (ip), vehicle: saline) 153 % of control. Further, the T/C (endpoint: median survival time, dose: 8.0 mg/kg/injection, schedule: Q03HX016 (ip), vehicle: saline) is 204 % of control; the T/C (endpoint: median survival time, dose: 16.0 mg/kg/injection, schedule: Q01DX009 (sc), vehicle: saline) was 152 % of control; the T/C (endpoint: median survival time, dose: 16.0 mg/kg/injection, schedule: Q03HX008 (ip), vehicle: saline) is 163 % of control; the T/C (endpoint: median survival time, dose: 16.0 mg/kg/injection, schedule: Q03HX016 (ip), vehicle: saline) was 203 % of control; the T/C (endpoint: median survival time, dose: 16.0 mg/kg/injection, schedule: Q03HX024 (ip), vehicle: saline) was 98 % of control; the T/C (endpoint: median survival time, dose: 32.0 mg/kg/injection, schedule: Q01DX009 (sc), vehicle: saline) is 156 % of control. Also, the T/C (endpoint: median survival time, dose: 32.0 mg/kg/injection, schedule: Q03HX008 (ip), vehicle: saline) is 160 % of control; the T/C (endpoint: median survival time, dose: 32.0 mg/kg/injection, schedule: Q03HX024 (ip), vehicle: saline) is 94 % of control; the T/C (endpoint: median survival time, dose: 64.0 mg/kg/injection, schedule: Q01DX001 (ip), vehicle: saline) was 102 % of control; the T/C (endpoint: median survival time, dose: 64.0 mg/kg/injection, schedule: Q01DX009 (sc), vehicle: saline) is 110 % of control; the T/C (endpoint: median survival time, dose: 64.0 mg/kg/injection, schedule: Q04DX003 (ip), vehicle: saline) is 108 % of control; the T/C (endpoint: median survival time, dose: 64.0 mg/kg/injection, schedule: Q04DX003 (sc), vehicle: saline) was 121 % of control. Moreover, the T/C was 109 % of control (endpoint: median survival time, dose: 64.0 mg/kg/injection, schedule: Q08DX002 (ip), vehicle: saline); 107 % of control (endpoint: median survival time, dose: 128.0 mg/kg/injection, schedule: Q01DX001 (ip), vehicle: saline); 93 % of control (endpoint: median survival time, dose: 128.0 mg/kg/injection, schedule: Q01DX009 (sc), vehicle: saline); 152 % of control (endpoint: median survival time, dose: 128.0 mg/kg/injection, schedule: Q03HX008 (ip), vehicle: saline); 124 % of control (endpoint: median survival time, dose: 128.0 mg/kg/injection, schedule: Q04DX003 (ip), vehicle: saline); 107 % of control (endpoint: median survival time, dose: 128.0 mg/kg/injection, schedule: Q08DX002 (ip), vehicle: saline). Also, the T/C was 109 % of control (endpoint: median survival time, dose: 256.0 mg/kg/injection, schedule: Q01DX001 (ip), vehicle: saline); 172 % of control (endpoint: median survival time, dose: 256.0 mg/kg/injection, schedule: Q04DX003 (sc), vehicle: saline); 120 % of control (endpoint: median survival time, dose: 512.0 mg/kg/injection, schedule: Q01DX001 (ip), vehicle: saline); 157 % of control (endpoint: median survival time, dose: 512.0 mg/kg/injection, schedule: Q04DX003 (ip), vehicle: saline); 202 % of control (endpoint: median survival time, dose: 512.0 mg/kg/injection, schedule: Q04DX003 (sc), vehicle: saline); 121 % of control (endpoint: median survival time, dose: 512.0 mg/kg/injection, schedule: Q08DX002 (ip), vehicle: saline). The T/C runs as follows: (endpoint: median survival time, dose: 1024.0 mg/kg/injection, schedule: Q04DX003 (ip), vehicle: saline) 193 % of control; (endpoint: median survival time, dose: 1024.0 mg/kg/injection, schedule: Q04DX003 (sc), vehicle: saline) 180 % of control; (endpoint: median survival time, dose: 1024.0 mg/kg/injection, schedule: Q08DX002 (ip), vehicle: saline) 179 % of control.
Turning to `CC(=O)OCC1OC(n2c(Br)nc3c(N)ncnc32)C(OC(C)=O)C1OC(C)=O` (stereo not drawn), the T/C runs as follows: under setting [2], 98 % of control; (endpoint: mean survival time, dose: 100.0 mg/kg/injection, schedule: Q01DX001 (ip), vehicle: carboxymethylcellulose (CMC)) 98 % of control; under setting [3], 95 % of control; (endpoint: mean survival time, dose: 100.0 mg/kg/injection, schedule: Q01DX005 (ip), vehicle: saline) 89 % of control; (endpoint: mean survival time, dose: 200.0 mg/kg/injection, schedule: Q01DX001 (ip), vehicle: carboxymethylcellulose (CMC)) 95 % of control; under setting [4], 104 % of control. Moreover, the T/C by setting is: (endpoint: mean survival time, dose: 200.0 mg/kg/injection, schedule: Q01DX005 (ip), vehicle: saline) 93 % of control; (endpoint: mean survival time, dose: 400.0 mg/kg/injection, schedule: Q01DX001 (ip), vehicle: carboxymethylcellulose (CMC)) 101 % of control.
For `O=C(O)c1c(F)c(F)c(Oc2c(F)c(F)c(F)c(F)c2F)c(F)c1F`, the T/C (endpoint: mean survival time, dose: 100.0 mg/kg/injection, schedule: Q04DX003 (ip), vehicle: Klucel (hydroxypropylcellulose) (HPC)) was 95 % of control and the T/C (endpoint: mean survival time, dose: 200.0 mg/kg/injection, schedule: Q04DX003 (ip), vehicle: Klucel (hydroxypropylcellulose) (HPC)) was 93 % of control.
In the case of `Cc1cccc2c(=O)c(C(=O)O)cn(C)c12`, the T/C was 107 % of control (endpoint: mean survival time, dose: 50.0 mg/kg/injection, schedule: Q04DX002 (ip), vehicle: saline); 107 % of control (endpoint: mean survival time, dose: 100.0 mg/kg/injection, schedule: Q04DX002 (ip), vehicle: saline); 107 % of control (endpoint: mean survival time, dose: 200.0 mg/kg/injection, schedule: Q04DX002 (ip), vehicle: saline).
In the case of `CC(=O)c1ccccc1OB(F)F`, the T/C is, setting by setting: under setting [2], 98 % of control; under setting [3], 98 % of control; under setting [4], 106 % of control.
On to `COc1ccccc1CCCO`, for which the T/C was 97 % of control under setting [2], 105 % of control under setting [3], 100 % of control under setting [4] and 105 % of control under setting [5].
Regarding `CC(C)C1=CC23CCC4C(C)(C(=O)O)CCCC4(C)C2CC1C1C(=O)c2ccccc2C(=O)C13` (stereo not drawn), the T/C was 90 % of control under setting [3], 95 % of control under setting [4] and 91 % of control under setting [5].
`Cc1nc(Cl)c(C#N)nc1C`: the T/C runs as follows: (endpoint: mean survival time, dose: 50.0 mg/kg/injection, schedule: Q01DX009 (ip), vehicle: saline with Tween-80) 100 % of control; (endpoint: mean survival time, dose: 100.0 mg/kg/injection, schedule: Q01DX009 (ip), vehicle: saline with Tween-80) 96 % of control; (endpoint: mean survival time, dose: 100.0 mg/kg/injection, schedule: Q04DX003 (ip), vehicle: saline with Tween-80) 100 % of control; (endpoint: mean survival time, dose: 200.0 mg/kg/injection, schedule: Q01DX009 (ip), vehicle: saline with Tween-80) 89 % of control; (endpoint: mean survival time, dose: 200.0 mg/kg/injection, schedule: Q04DX003 (ip), vehicle: saline with Tween-80) 94 % of control.
Consider `COC(=O)c1ccccc1NC(=O)c1cccc(F)c1`, for which the T/C was 95 % of control (endpoint: mean survival time, dose: 100.0 mg/kg/injection, schedule: Q01DX009 (ip), vehicle: Klucel (hydroxypropylcellulose) (HPC)); 105 % of control (endpoint: mean survival time, dose: 200.0 mg/kg/injection, schedule: Q01DX009 (ip), vehicle: Klucel (hydroxypropylcellulose) (HPC)); 103 % of control (endpoint: mean survival time, dose: 400.0 mg/kg/injection, schedule: Q01DX009 (ip), vehicle: Klucel (hydroxypropylcellulose) (HPC)).
As to `CC(=O)N(C)c1cc([N+](=O)[O-])ccc1OCc1ccccc1`, the T/C was 102 % of control under setting [2] and 96 % of control under setting [3].
As for `Clc1ccc(CC23CCCCC2N3)cc1` (stereo not drawn), the T/C reads like this: (endpoint: mean survival time, dose: 100.0 mg/kg/injection, schedule: Q04DX003 (ip), vehicle: saline sonified) 95 % of control; (endpoint: mean survival time, dose: 200.0 mg/kg/injection, schedule: Q04DX003 (ip), vehicle: saline sonified) 108 % of control; (endpoint: mean survival time, dose: 400.0 mg/kg/injection, schedule: Q04DX003 (ip), vehicle: saline sonified) 105 % of control.
Consider `CCCCCCCCCCCC[N+](C)(C)CCn1cnc2c(N)ncnc21`, for which the T/C is, setting by setting: (endpoint: mean survival time, dose: 6.25 mg/kg/injection, schedule: Q04DX003 (ip), vehicle: saline) 106 % of control; (endpoint: mean survival time, dose: 12.5 mg/kg/injection, schedule: Q04DX003 (ip), vehicle: saline) 109 % of control; under setting [1], 103 % of control.

The values above are taken from PubChem BioAssay AID248 (DTP/NCI, 2004).
